Experimental data published in US20250353844A1, “TETRAHYDROPYRIDO 3,4-D PYRIMIDINE DERIVATIVES AS KRAS INHIBITORS” (Bristol-Myers Squibb Company, priority 2022, published 2025).

Target: Recombinant GMPPNP-loaded KRAS G12C (KRAS-G12C(ON)) / GST-RAF1 RBD (Homo sapiens, UniProt P01116, G12C)
Experiment: KRAS G12C RAF Disruption Assay (HTRF)
Type: biochemical
Conditions: GMPPNP-loaded KRAS G12C 5 nM, compound 20 min at room temperature, GST-RAF1 RBD 9 nM, HTRF signal; read-out: KRASG12C RAF Disruption Assay (IC50)
Experimental: Recombinant GST-RAF1 RBD (9 nM) was added, and the reaction mixture was incubated for 20 minutes. SA-Tb (0.25 nM) was added, and the reaction mixture was incubated for 3 hours. HTRF signal was measured (PerkinElmer Envision), the signal ratio (λem 520/λem 495) was calculated, and IC50 values were calculated from the dose-response curve.

Sequence of Recombinant GMPPNP-loaded KRAS G12C (KRAS-G12C(ON)) / GST-RAF1 RBD (P01116 1-188 isoform P01116-2 G12C): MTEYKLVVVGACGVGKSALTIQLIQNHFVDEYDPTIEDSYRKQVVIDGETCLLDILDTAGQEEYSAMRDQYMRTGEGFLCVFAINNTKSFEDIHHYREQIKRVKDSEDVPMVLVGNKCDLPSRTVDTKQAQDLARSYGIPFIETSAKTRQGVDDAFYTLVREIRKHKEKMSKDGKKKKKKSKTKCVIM

SMILES | IC50 [nM]
CN1CCC[C@H]1COc1nc2c(c(N3CCN(C(=O)C(F)=Cc4ccns4)[C@@H](CC#N)C3)n1)CCN(c1cccc3cccc(Cl)c13)C2 (racemic) [Example 9, 2-((S)-4-(7-(8-chloronaphthalen-1-yl)-2-(((S)-1-methylpyrrolidin-2-yl)methoxy)-5,6,7,8-tetrahydropyrido[3,4-d]pyrimidin-4-yl)-1-(2-fluoro-3-(isothiazol-5-yl)acryloyl)piperazin-2-yl)acetonitrile] | 57000
CN1CCC[C@H]1COc1nc2c(c(N3CCN(C(=O)/C(F)=C/c4cccnc4)[C@@H](CC#N)C3)n1)CCN(c1cccc3cccc(Cl)c13)C2 [Example 2, 2-((S)-4-(7-(8-chloronaphthalen-1-yl)-2-(((S)-1-methylpyrrolidin-2-yl)methoxy)-5,6,7,8-tetrahydropyrido[3,4-d]pyrimidin-4-yl)-1-((Z)-2-fluoro-3-(pyridin-3-yl)acryloyl)piperazin-2-yl)acetonitrile] | 40300
CN1CCC[C@H]1COc1nc2c(c(N3CCN(C(=O)/C(F)=C/c4ccncc4)[C@@H](CC#N)C3)n1)CCN(c1cccc3cccc(Cl)c13)C2 [Example 3, 2-((S)-4-(7-(8-chloronaphthalen-1-yl)-2-(((S)-1-methylpyrrolidin-2-yl)methoxy)-5,6,7,8-tetrahydropyrido[3,4-d]pyrimidin-4-yl)-1-((Z)-2-fluoro-3-(pyridin-4-yl)acryloyl)piperazin-2-yl)acetonitrile] | 329
CN1CCC[C@H]1COc1nc2c(c(N3CCN(C(=O)/C(F)=C/c4ncccn4)[C@@H](CC#N)C3)n1)CCN(c1cccc3cccc(Cl)c13)C2 [Example 4, 2-((S)-4-(7-(8-chloronaphthalen-1-yl)-2-(((S)-1-methylpyrrolidin-2-yl)methoxy)-5,6,7,8-tetrahydropyrido[3,4-d]pyrimidin-4-yl)-1-((Z)-2-fluoro-3-(pyrimidin-2-yl)acryloyl)piperazin-2-yl)acetonitrile] | 103
CN1CCC[C@H]1COc1nc2c(c(N3CCN(C(=O)/C(F)=C/c4ncco4)[C@@H](CC#N)C3)n1)CCN(c1cccc3cccc(Cl)c13)C2 [Example 6, 2-((S)-4-(7-(8-chloronaphthalen-1-yl)-2-(((S)-1-methylpyrrolidin-2-yl)methoxy)-5,6,7,8-tetrahydropyrido[3,4-d]pyrimidin-4-yl)-1-((Z)-2-fluoro-3-(oxazol-2-yl)acryloyl)piperazin-2-yl)acetonitrile] | 89
N#CC[C@H]1CN(c2nc(OC[C@@]34CCCN3C[C@H](F)C4)nc3c2CCN(c2cccc4cccc(Cl)c24)C3)CCN1C(=O)/C(F)=C/c1ccccn1 [Example 7, 2-((S)-4-(7-(8-chloronaphthalen-1-yl)-2 (((2R,7aS)-2-fluorotetrahydro-1H-pyrrolizin-7a(5H)-yl)methoxy)-5,6,7,8-tetrahydropyrido[3,4-d]pyrimidin-4-yl)-1-((Z)-2-fluoro-3-(pyridin-2-yl)acryloyl)piperazin-2-yl)acetonitrile] | 74
N#CC[C@H]1CN(c2nc(OC[C@@]34CCCN3C[C@H](F)C4)nc3c2CCN(c2cccc4cccc(Cl)c24)C3)CCN1C(=O)/C(F)=C/c1nccs1 [Example 8, 2-((S)-4-(7-(8-chloronaphthalen-1-yl)-2 (((2R,7aS)-2-fluorotetrahydro-1H-pyrrolizin-7a(5H)-yl)methoxy)-5,6,7,8-tetrahydropyrido[3,4-d]pyrimidin-4-yl)-1-((Z)-2-fluoro-3-(thiazol-2-yl)acryloyl)piperazin-2-yl)acetonitrile] | 55
CN1CCC[C@H]1COc1nc2c(c(N3CCN(C(=O)/C(F)=C/c4nccn4C)[C@@H](CC#N)C3)n1)CCN(c1cccc3cccc(Cl)c13)C2 [Example 10, 2-((S)-4-(7-(8-chloronaphthalen-1-yl)-2-(((S)-1-methylpyrrolidin-2-yl)methoxy)-5,6,7,8-tetrahydropyrido[3,4-d]pyrimidin-4-yl)-1-((Z)-2-fluoro-3-(1-methyl-1H-imidazol-2-yl)acryloyl)piperazin-2-yl)acetonitrile] | 24000
Cc1cccc(/C=C(\F)C(=O)N2CCN(c3nc(OC[C@@H]4CCCN4C)nc4c3CCN(c3cccc5cccc(Cl)c35)C4)C[C@@H]2CC#N)n1 [Example 11, 2-((S)-4-(7-(8-chloronaphthalen-1-yl)-2-(((S)-1-methylpyrrolidin-2-yl)methoxy)-5,6,7,8-tetrahydropyrido[3,4-d]pyrimidin-4-yl)-1-((Z)-2-fluoro-3-(6-methylpyridin-2-yl)acryloyl)piperazin-2-yl)acetonitrile] | 144
Cc1ccnc(/C=C(\F)C(=O)N2CCN(c3nc(OC[C@@H]4CCCN4C)nc4c3CCN(c3cccc5cccc(Cl)c35)C4)C[C@@H]2CC#N)c1 [Example 12, 2-((S)-4-(7-(8-chloronaphthalen-1-yl)-2-(((S)-1-methylpyrrolidin-2-yl)methoxy)-5,6,7,8-tetrahydropyrido[3,4-d]pyrimidin-4-yl)-1-((Z)-2-fluoro-3-(4-methylpyridin-2-yl)acryloyl)piperazin-2-yl)acetonitrile] | 129
Cc1ccc(/C=C(\F)C(=O)N2CCN(c3nc(OC[C@@H]4CCCN4C)nc4c3CCN(c3cccc5cccc(Cl)c35)C4)C[C@@H]2CC#N)nc1 [Example 13, 2-((S)-4-(7-(8-chloronaphthalen-1-yl)-2-(((S)-1-methylpyrrolidin-2-yl)methoxy)-5,6,7,8-tetrahydropyrido[3,4-d]pyrimidin-4-yl)-1-((Z)-2-fluoro-3-(5-methylpyridin-2-yl)acryloyl)piperazin-2-yl)acetonitrile] | 192
Cc1cccnc1/C=C(\F)C(=O)N1CCN(c2nc(OC[C@@H]3CCCN3C)nc3c2CCN(c2cccc4cccc(Cl)c24)C3)C[C@@H]1CC#N [Example 14, 2-((S)-4-(7-(8-chloronaphthalen-1-yl)-2-(((S)-1-methylpyrrolidin-2-yl)methoxy)-5,6,7,8-tetrahydropyrido[3,4-d]pyrimidin-4-yl)-1-((Z)-2-fluoro-3-(3-methylpyridin-2-yl)acryloyl)piperazin-2-yl)acetonitrile] | 778
C[C@H]1CN(C(=O)/C(F)=C/c2nccs2)CCN1c1nc(OC[C@@H]2CCCN2C)nc2c1CCN(c1cccc3cccc(Cl)c13)C2 [Example 15, (Z)-1-((S)-4-(7-(8-chloronaphthalen-1-yl)-2-(((S)-1-methylpyrrolidin-2-yl)methoxy)-5,6,7,8-tetrahydropyrido[3,4-d]pyrimidin-4-yl)-3-methylpiperazin-1-yl)-2-fluoro-3-(thiazol-2-yl)prop-2-en-1-one] | 7500
CN1CCC[C@H]1COc1nc2c(c(N3CCN(C(=O)/C(F)=C/c4ccon4)[C@@H](CC#N)C3)n1)CCN(c1cccc3cccc(Cl)c13)C2 [Example 16, 2-((S)-4-(7-(8-chloronaphthalen-1-yl)-2-(((S)-1-methylpyrrolidin-2-yl)methoxy)-5,6,7,8-tetrahydropyrido[3,4-d]pyrimidin-4-yl)-1-((Z)-2-fluoro-3-(isoxazol-3-yl)acryloyl)piperazin-2-yl)acetonitrile] | 63700
CN1CCC[C@H]1COc1nc2c(c(N3CCN(C(=O)/C(F)=C/c4ccno4)[C@@H](CC#N)C3)n1)CCN(c1cccc3cccc(Cl)c13)C2 [Example 17] | 10500
CN1CCC[C@H]1COc1nc2c(c(N3CCN(C(=O)/C(F)=C/c4cn(C)nn4)[C@@H](CC#N)C3)n1)CCN(c1cccc3cccc(Cl)c13)C2 [Example 18] | 92600
